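Cultured in 96-well plates, cells were exposed to test compound for 48 hours across five concentrations. Abbreviation: GI50, concentration required for 50% inhibition of growth.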 Activity calls are given as the source filed them. No stated cut-off is given here; in the data, active = GI50 up to about 1.1 µM and inactive = higher.
Experiments:
Experiment in all cases: DTP human tumour cell line panel, 48 h
IGROV-1 = system: IGROV-1
SK-MEL-5 = system: SK-MEL-5
UACC-257 = system: UACC-257
HL-60 = system: HL-60
CAKI-1 = system: CAKI-1
HOP-92 = system: HOP-92
SNB-19 = system: SNB-19
SK-MEL-28 = system: SK-MEL-28
CCRF-CEM = system: CCRF-CEM
SN12C = system: SN12C
OVCAR-4 = system: OVCAR-4
EKVX = system: EKVX
UACC-62 = system: UACC-62
HCT-116 = system: HCT-116
SF-295 = system: SF-295
OVCAR-3 = system: OVCAR-3
NCI-H226 = system: NCI-H226
U-251 = system: U-251
NCI-H460 = system: NCI-H460
KM12 = system: KM12

| SMILES | GI50 (IGROV-1) | GI50 (SK-MEL-5) | GI50 (UACC-257) | GI50 (HL-60) | GI50 (CAKI-1) | GI50 (HOP-92) | GI50 (SNB-19) | GI50 (SK-MEL-28) | GI50 (CCRF-CEM) | GI50 (SN12C) | GI50 (OVCAR-4) | GI50 (EKVX) | GI50 (UACC-62) | GI50 (HCT-116) | GI50 (SF-295) | GI50 (OVCAR-3) | GI50 (NCI-H226) | GI50 (U-251) | GI50 (NCI-H460) | GI50 (KM12) |
| --- | --- | --- | --- | --- | --- | --- | --- | --- | --- | --- | --- | --- | --- | --- | --- | --- | --- | --- | --- | --- |
| COC(=O)c1c(O)ccc2c1c1c(n2Cc2cccc(C)c2)C(=O)c2ccccc2C1 | 42.7 µM (inactive) | 29.2 µM (inactive) | 46.1 µM (inactive) | > 75 µM (inactive) | 8.75 µM (inactive) | 42.6 µM (inactive) | > 75 µM (inactive) | 0.295 µM (active) | 12.4 µM (inactive) | 12.9 µM (inactive) | 0.126 µM (active) | 0.0931 µM (active) | 32.6 µM (inactive) | 7.85 µM (inactive) | 24.9 µM (inactive) | 12.6 µM (inactive) | 19.7 µM (inactive) | 14.5 µM (inactive) | 19.4 µM (inactive) |  |
| CC(=O)NNc1nc(C)c(C(=O)NNC(=O)C(=O)Nc2cccc(C(C)=O)c2)s1 | 26.5 µM (inactive) | 95.3 µM (inactive) | 23.1 µM (inactive) | 25.5 µM (inactive) | 16.4 µM (inactive) | 13.4 µM (inactive) | 41 µM (inactive) | 19.7 µM (inactive) | 23.2 µM (inactive) | 15.9 µM (inactive) | 25.2 µM (inactive) | 42.7 µM (inactive) | 16.3 µM (inactive) | 31.8 µM (inactive) | 31.4 µM (inactive) |  | 22.8 µM (inactive) | 26.6 µM (inactive) | 12.7 µM (inactive) | 24.7 µM (inactive) |
| c1ccc(COC2(OCc3ccccc3)CC3OC2C2NN=NC32)cc1 (configuration not stated) | 28.6 µM (inactive) | 17.1 µM (inactive) | 18.5 µM (inactive) | 11.1 µM (inactive) | 44 µM (inactive) | 19.6 µM (inactive) |  | 18.8 µM (inactive) | 11.3 µM (inactive) | > 10 µM (inactive) | 17.9 µM (inactive) |  | 21.3 µM (inactive) |  | 23.1 µM (inactive) | 18.3 µM (inactive) | 18.1 µM (inactive) | 18.1 µM (inactive) | 46.1 µM (inactive) | 28.7 µM (inactive) |
| c1ccc(/N=C2\S/C(=N\C3CCCCC3)N(C3CCCCC3)\C2=N/c2ccccc2)cc1 | > 100 µM (inactive) | 80.4 µM (inactive) |  | > 100 µM (inactive) | > 100 µM (inactive) |  | > 100 µM (inactive) | > 100 µM (inactive) | > 100 µM (inactive) | > 100 µM (inactive) |  |  | > 100 µM (inactive) | > 100 µM (inactive) | > 100 µM (inactive) | > 100 µM (inactive) | > 100 µM (inactive) | > 100 µM (inactive) | > 100 µM (inactive) | > 100 µM (inactive) |
| Cn1ccnc1C(O)(c1nccn1C)c1nccn1C |  | > 100 µM (inactive) | > 100 µM (inactive) | > 100 µM (inactive) | > 100 µM (inactive) | > 100 µM (inactive) | > 100 µM (inactive) | > 100 µM (inactive) |  | > 100 µM (inactive) | > 100 µM (inactive) | > 100 µM (inactive) |  |  | > 100 µM (inactive) |  | > 100 µM (inactive) | > 100 µM (inactive) | > 100 µM (inactive) | > 100 µM (inactive) |
| COC(=O)C1CC=C(SC(=O)c2ccccc2)N1C(=O)c1ccccc1 (configuration not stated) | > 100 µM (inactive) | > 100 µM (inactive) | > 100 µM (inactive) |  | > 100 µM (inactive) | > 100 µM (inactive) | > 100 µM (inactive) | > 100 µM (inactive) |  |  | > 100 µM (inactive) | > 100 µM (inactive) | > 100 µM (inactive) | > 100 µM (inactive) | > 100 µM (inactive) | > 100 µM (inactive) |  | > 100 µM (inactive) | 39.6 µM (inactive) | > 100 µM (inactive) |
| Clc1nc(Cl)nc(Nc2cccc3ccccc23)n1 | > 10 µM (inactive) | > 10 µM (inactive) |  | 7.98 µM (inactive) | > 10 µM (inactive) |  | > 10 µM (inactive) | > 10 µM (inactive) | > 10 µM (inactive) | > 10 µM (inactive) | > 10 µM (inactive) | > 10 µM (inactive) | > 10 µM (inactive) | > 10 µM (inactive) | > 10 µM (inactive) | 0.0436 µM (active) | > 10 µM (inactive) | > 10 µM (inactive) | > 10 µM (inactive) | > 10 µM (inactive) |
| CCCCP1(=O)C=CC(Cl)=C(C)C1 (configuration not stated) | > 100 µM (inactive) | > 100 µM (inactive) | > 100 µM (inactive) | > 100 µM (inactive) |  | > 100 µM (inactive) |  | > 100 µM (inactive) | > 100 µM (inactive) | > 100 µM (inactive) | > 100 µM (inactive) | > 100 µM (inactive) | > 100 µM (inactive) | > 100 µM (inactive) | > 100 µM (inactive) | > 100 µM (inactive) |  | > 100 µM (inactive) | > 100 µM (inactive) | > 100 µM (inactive) |

From ChEMBL document CHEMBL1201862, “PubChem BioAssay data set” (2004)
